Experiments:
[1] = target: T1, E. coli respiratory complex I (NADH:ubiquinone oxidoreductase) (Escherichia coli, UniProt P31979); assay: NADH:ferricyanide oxidoreductase assay, NADH oxidation at […] nm, Lineweaver-Burk secondary plots; type: biochemical; settings: reaction started by enzyme (oxidised enzyme); ferricyanide 0.25-2 mM; pH 6.0, 30 °C; ping-pong-pong with double substrate inhibition; read-out: Km, app. ^NADH
T1 construct: gene nuoF; whole complex from the nuo operon, His-tagged NuoF, overproduced in E. coli, DDM-solubilised, purified by anion exchange, Ni-IDA and Source Q; with NADH-quinone oxidoreductase subunit E; NADH-quinone oxidoreductase subunit G; NADH-quinone oxidoreductase subunit C/D; NADH-quinone oxidoreductase subunit B; NADH-quinone oxidoreductase subunit I; NADH-quinone oxidoreductase subunit A; NADH-quinone oxidoreductase subunit H; NADH-quinone oxidoreductase subunit J; NADH-quinone oxidoreductase subunit K; NADH-quinone oxidoreductase subunit L; NADH-quinone oxidoreductase subunit M; NADH-quinone oxidoreductase subunit N
T1 sequence (P0AFD1 whole entry V96P/N142M, form open, one chain of several): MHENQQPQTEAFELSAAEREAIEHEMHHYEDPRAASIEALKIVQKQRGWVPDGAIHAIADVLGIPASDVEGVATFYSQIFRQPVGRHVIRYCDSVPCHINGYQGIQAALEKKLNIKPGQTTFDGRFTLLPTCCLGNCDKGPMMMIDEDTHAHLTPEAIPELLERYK

[2] = target: T1, E. coli respiratory complex I (NADH:ubiquinone oxidoreductase); assay: as above; type: biochemical; settings: reaction started by enzyme (oxidised enzyme), ferricyanide 0.25-2 mM, pH 6.0, 30 °C, ping-pong-pong with double substrate inhibition, competitive with ferricyanide at the reduced
[3] = target: T2, E. coli respiratory complex I (NADH:ubiquinone oxidoreductase) (Escherichia coli, UniProt P31979); assay: as above; type: biochemical; settings: reaction started by enzyme (oxidised enzyme), ferricyanide 0.25-2 mM, pH 6.0, 30 °C, ping-pong-pong with double substrate inhibition, competitive with ferricyanide at the reduced; remark: listed apart in the source
T2 construct: gene nuoF; whole complex from the nuo operon, His-tagged NuoF, overproduced in E. coli, DDM-solubilised, purified by anion exchange, Ni-IDA and Source Q; with NADH-quinone oxidoreductase subunit E; NADH-quinone oxidoreductase subunit G; NADH-quinone oxidoreductase subunit C/D; NADH-quinone oxidoreductase subunit B; NADH-quinone oxidoreductase subunit I; NADH-quinone oxidoreductase subunit A; NADH-quinone oxidoreductase subunit H; NADH-quinone oxidoreductase subunit J; NADH-quinone oxidoreductase subunit K; NADH-quinone oxidoreductase subunit L; NADH-quinone oxidoreductase subunit M; NADH-quinone oxidoreductase subunit N
T2 sequence (P31979 1-445): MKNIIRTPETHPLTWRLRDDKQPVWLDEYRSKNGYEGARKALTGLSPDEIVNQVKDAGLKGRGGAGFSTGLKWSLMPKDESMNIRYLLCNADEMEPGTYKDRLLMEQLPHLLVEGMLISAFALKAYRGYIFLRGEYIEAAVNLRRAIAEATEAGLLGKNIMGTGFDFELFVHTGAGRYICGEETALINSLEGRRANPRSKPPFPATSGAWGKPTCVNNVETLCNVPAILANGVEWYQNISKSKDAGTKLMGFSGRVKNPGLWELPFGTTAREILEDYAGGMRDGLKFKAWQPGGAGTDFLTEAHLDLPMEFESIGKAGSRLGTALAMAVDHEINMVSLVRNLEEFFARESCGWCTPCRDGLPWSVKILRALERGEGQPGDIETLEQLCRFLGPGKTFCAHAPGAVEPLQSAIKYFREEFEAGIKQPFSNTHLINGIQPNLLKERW
T2 sequence (P0AFD1 1-166 partner): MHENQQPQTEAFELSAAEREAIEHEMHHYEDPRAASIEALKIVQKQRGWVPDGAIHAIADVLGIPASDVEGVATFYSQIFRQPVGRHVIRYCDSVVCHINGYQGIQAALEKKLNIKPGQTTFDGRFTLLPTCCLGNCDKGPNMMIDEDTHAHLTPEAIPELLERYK
T2 sequence (P33602 2-908 partner): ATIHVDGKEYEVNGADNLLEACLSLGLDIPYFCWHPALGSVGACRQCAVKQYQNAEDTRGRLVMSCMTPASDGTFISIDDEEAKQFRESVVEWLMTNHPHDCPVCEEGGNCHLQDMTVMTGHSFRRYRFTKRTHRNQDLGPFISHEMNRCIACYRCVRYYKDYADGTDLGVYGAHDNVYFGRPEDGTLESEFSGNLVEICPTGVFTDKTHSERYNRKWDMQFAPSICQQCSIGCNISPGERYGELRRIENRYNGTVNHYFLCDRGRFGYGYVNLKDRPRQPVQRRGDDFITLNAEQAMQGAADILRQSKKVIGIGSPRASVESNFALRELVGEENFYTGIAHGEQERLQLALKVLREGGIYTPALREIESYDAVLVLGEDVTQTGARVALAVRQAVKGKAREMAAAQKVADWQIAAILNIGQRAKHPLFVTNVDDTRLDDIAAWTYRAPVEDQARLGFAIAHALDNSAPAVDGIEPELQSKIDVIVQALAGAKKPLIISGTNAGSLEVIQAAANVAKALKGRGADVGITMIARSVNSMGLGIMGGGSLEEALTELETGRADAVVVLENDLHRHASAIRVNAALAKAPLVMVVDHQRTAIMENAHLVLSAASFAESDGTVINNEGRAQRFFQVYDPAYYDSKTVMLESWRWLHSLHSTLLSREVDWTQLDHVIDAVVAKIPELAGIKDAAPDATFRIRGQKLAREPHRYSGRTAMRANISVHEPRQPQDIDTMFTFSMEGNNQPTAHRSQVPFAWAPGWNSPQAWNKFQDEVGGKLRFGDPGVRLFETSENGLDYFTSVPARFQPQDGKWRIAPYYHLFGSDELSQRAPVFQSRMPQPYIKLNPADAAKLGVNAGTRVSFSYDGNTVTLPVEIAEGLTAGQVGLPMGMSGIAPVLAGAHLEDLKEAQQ

[4] = target: T2, E. coli respiratory complex I (NADH:ubiquinone oxidoreductase); assay: as above; type: biochemical; settings: reaction started by enzyme (oxidised enzyme); pH 6.0, 30 °C; off-rate derived from steady-state kinetics, not a Kd
[5] = target: T1, E. coli respiratory complex I (NADH:ubiquinone oxidoreductase); assay: as above; type: biochemical; settings: reaction started by enzyme (oxidised enzyme); pH 6.0, 30 °C; off-rate derived from steady-state kinetics, not a Kd; remark: listed apart in the source
[6] = target: T3, T. thermophilus complex I (Thermus thermophilus, UniProt Q56222); assay: d-NADH:ferricyanide oxidoreductase activity of cytoplasmic membranes, […] nm; type: biochemical; settings: ferricyanide as acceptor; 50 mM Bis-Tris, pH 7.3 (Figure 1 legend), 60 °C
T3 construct: gene nqo1; native complex in isolated T. thermophilus cytoplasmic membranes; with NADH-quinone oxidoreductase subunit 2; NADH-quinone oxidoreductase subunit 3; NADH-quinone oxidoreductase subunit 4; NADH-quinone oxidoreductase subunit 5; NADH-quinone oxidoreductase subunit 6; NADH-quinone oxidoreductase subunit 7; NADH-quinone oxidoreductase subunit 8; NADH-quinone oxidoreductase subunit 9; NADH-quinone oxidoreductase subunit 10; NADH-quinone oxidoreductase subunit 11; NADH-quinone oxidoreductase subunit 12; NADH-quinone oxidoreductase subunit 13; NADH-quinone oxidoreductase subunit 14; NADH-quinone oxidoreductase subunit 15; NADH-quinone oxidoreductase subunit 16
T3 sequence (Q56222 1-438): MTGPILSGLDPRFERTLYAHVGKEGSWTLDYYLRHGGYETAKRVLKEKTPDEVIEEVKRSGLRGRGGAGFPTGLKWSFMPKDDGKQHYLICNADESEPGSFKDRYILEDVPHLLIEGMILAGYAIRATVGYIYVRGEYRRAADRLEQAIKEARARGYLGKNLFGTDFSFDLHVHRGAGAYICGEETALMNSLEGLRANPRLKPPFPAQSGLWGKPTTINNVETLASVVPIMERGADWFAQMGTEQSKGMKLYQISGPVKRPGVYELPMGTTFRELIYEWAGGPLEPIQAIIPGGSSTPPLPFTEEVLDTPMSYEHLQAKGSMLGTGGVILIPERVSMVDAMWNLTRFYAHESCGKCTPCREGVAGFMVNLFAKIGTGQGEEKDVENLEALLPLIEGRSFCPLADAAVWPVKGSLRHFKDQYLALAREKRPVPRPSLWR
T3 sequence (Q56221 2-181 partner): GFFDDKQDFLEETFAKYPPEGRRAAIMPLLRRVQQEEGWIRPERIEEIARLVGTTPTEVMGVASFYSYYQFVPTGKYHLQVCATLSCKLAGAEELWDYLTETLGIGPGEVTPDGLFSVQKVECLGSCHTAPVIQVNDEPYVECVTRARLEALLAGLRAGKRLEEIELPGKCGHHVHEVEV
T3 sequence (Q56223 1-783 partner): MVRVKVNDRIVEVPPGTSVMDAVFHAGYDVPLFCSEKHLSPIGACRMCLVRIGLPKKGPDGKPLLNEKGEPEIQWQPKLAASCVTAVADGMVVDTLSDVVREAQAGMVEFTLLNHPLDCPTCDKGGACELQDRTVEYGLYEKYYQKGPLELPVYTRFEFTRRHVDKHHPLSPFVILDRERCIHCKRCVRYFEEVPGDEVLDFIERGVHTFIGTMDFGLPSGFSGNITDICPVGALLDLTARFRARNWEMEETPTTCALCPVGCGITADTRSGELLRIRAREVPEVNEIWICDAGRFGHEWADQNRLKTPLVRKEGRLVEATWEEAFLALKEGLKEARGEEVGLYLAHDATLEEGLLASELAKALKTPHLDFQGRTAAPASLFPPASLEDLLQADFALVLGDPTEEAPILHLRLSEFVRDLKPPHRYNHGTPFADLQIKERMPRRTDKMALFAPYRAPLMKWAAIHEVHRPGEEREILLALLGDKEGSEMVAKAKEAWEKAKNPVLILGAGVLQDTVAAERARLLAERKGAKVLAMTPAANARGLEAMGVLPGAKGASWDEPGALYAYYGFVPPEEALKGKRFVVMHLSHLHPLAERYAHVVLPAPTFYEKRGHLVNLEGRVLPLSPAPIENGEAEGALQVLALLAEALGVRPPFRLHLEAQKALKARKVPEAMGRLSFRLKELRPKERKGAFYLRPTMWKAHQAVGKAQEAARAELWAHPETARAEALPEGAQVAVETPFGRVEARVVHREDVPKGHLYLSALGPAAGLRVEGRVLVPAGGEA

purified protein = substrate: NC(=O)C1=CN([C@@H]2O[C@H](COP(=O)(O)OP(=O)(O)OC[C@H]3O[C@@H](n4cnc5c(N)ncnc54)[C@H](O)[C@@H]3O)[C@@H](O)[C@H]2O)C=CC1; assay: purified protein; type: biochemical, Escherichia coli; settings: reaction started by enzyme (oxidised enzyme), ferricyanide 0.25-2 mM, pH 6.0, 30 °C, ping-pong-pong with double substrate inhibition

## NC(=O)C1=CN([C@@H]2O[C@H](COP(=O)(O)OP(=O)(O)OC[C@H]3O[C@@H](n4cnc5c(N)ncnc54)[C@H](O)[C@@H]3O)[C@@H](O)[C@H]2O)C=CC1 [NADH]
[1]
  Km: 11 µM
[2]
  Ki, app. ^NADH: 22 µM
[3]
  Ki, app. ^NADH: 22 µM

## NC(=O)c1ccc[n+]([C@@H]2O[C@H](COP(=O)(O)OP(=O)(O)OC[C@H]3O[C@@H](n4cnc5c(N)ncnc54)[C@H](O)[C@@H]3O)[C@@H](O)[C@H]2O)c1 [NAD^+]
[4]
  Rate constant: NAD^+ dissociation (s^-1): 2.3 10^3
[5]
  Rate constant: NAD^+ dissociation (s^-1): 2.4 10^3

## NC(=O)C1=CN([C@@H]2O[C@H](COP(=O)(O)OP(=O)(O)OC[C@H]3O[C@@H](n4cnc5c(=O)[nH]cnc54)[C@H](O)[C@@H]3O)[C@@H](O)[C@H]2O)C=CC1 [d-NADH]
[6]
  d-NADH:ferricyanide oxidoreductase activity of cytoplasmic membranes, 340 nm: T. thermophilus membranes exhibited similar fast reaction rates

B1: E. coli respiratory complex I (NADH:ubiquinone oxidoreductase) (Escherichia coli K-12) (protein)
chain: MKNIIRTPETHPLTWRLRDDKQPVWLDEYRSKNGYEGARKALTGLSPDEIVNQVKDAGLKGRGGAGFSTGLKWSLMPKDESMNIRYLLCNADEMEPGTYKDRLLMEQLPHLLVEGMLISAFALKAYRGYIFLRGEYIEAAVNLRRAIAEATEAGLLGKNIMGTGFDFELFVHTGAGRYICGEETALINSLEGRRANPRSKPPFPATSGAWGKPTCVNNVETLCNVPAILANGVEWYQNISKSKDAGTKLMGFSGRVKNPGLWELPFGTTAREILEDYAGGMRDGLKFKAWQPGGAGTDFLTEAHLDLPMEFESIGKAGSRLGTALAMAVDHEINMVSLVRNLEEFFARESCGWCTPCRDGLPWSVKILRALERGEGQPGDIETLEQLCRFLGPGKTFCAHAPGAVEPLQSAIKYFREEFEAGIKQPFSNTHLINGIQPNLLKERW
notes: whole complex from the nuo operon, His-tagged NuoF, overproduced in E. coli, DDM-solubilised, purified by anion exchange, Ni-IDA and Source Q; with NADH-quinone oxidoreductase subunit E; NADH-quinone oxidoreductase subunit G; NADH-quinone oxidoreductase subunit C/D; NADH-quinone oxidoreductase subunit B; NADH-quinone oxidoreductase subunit I; NADH-quinone oxidoreductase subunit A; NADH-quinone …
Purified protein
  Km: 11 µM

From publication PMC5562879, “Reduction of the off-pathway iron-sulphur cluster N1a of Escherichia coli respiratory complex I restrains NAD^+ dissociation” (Scientific Reports, 2017)
